In PubChem BioAssay (NCI):
Where “and” joins values, the source holds several entries; their conditions need not be identical. Equal values may be shown once.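 Results reflect a 48-hour exposure of cells in 96-well plates to compound at five concentrations. GI50: concentration for 50% inhibition of growth. At the TGI there is no net growth.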

Key:
Experiment in all cases: NCI tumour cell line growth inhibition, 48 h
DMS 114 small cell lung = system: DMS 114 small cell lung
KM20L2 colon = system: KM20L2 colon
RXF-631 renal = system: RXF-631 renal
SNB-78 CNS = system: SNB-78 CNS
MDA-N = system: MDA-N
PC-3 prostate = system: PC-3 prostate
T-47D breast = system: T-47D breast
BT-549 breast = system: BT-549 breast
NCI/ADR-RES ovarian = system: NCI/ADR-RES ovarian

| SMILES | TGI (DMS 114 small cell lung) [µM] | TGI (KM20L2 colon) [µM] | TGI (RXF-631 renal) [µM] | TGI (SNB-78 CNS) [µM] | other results |
| --- | --- | --- | --- | --- | --- |
| CSc1ccc(Cc2cc(C(C)(C)C)cc(C(C)(C)C)c2O)cc1 | 25.7 | 28.2 | 29.4 | 28.8 |  |
| CC1=NC(C)=C(/C(C)=N/NC(=O)c2ccccc2O)C(C)/C1=C(/C)NNC(=O)c1ccccc1O (centres undefined) | 44.1 | > 100 | > 100 | > 100 |  |
| Oc1ccc(O)c(-n2cccn2)c1 | 89.7 | > 100 | > 100 | > 100 |  |
| CC(=O)OC1CC2C(C)(C)C(=O)C=C[C@]2(C)C2CCC3(C)C(c4ccoc4)C(=O)C4OC43[C@]12C (some centres undefined) | 33.3 | 32.1 |  | > 100 |  |
| C[N+]1(CCNP(=S)(NCC[N+]2(C)Cc3c(ccc4c3OCO4)C3C2c2cc4c(cc2C[C@@H]3O)OCO4)NCC[N+]2(C)Cc3c(ccc4c3OCO4)C3C2c2cc4c(cc2C[C@@H]3O)OCO4)Cc2c(ccc3c2OCO3)C2C1c1cc3c(cc1C[C@H]2O)OCO3 (some centres undefined) |  |  |  |  | GI50 (KM20L2 colon): 2.13 µM; GI50 (SNB-78 CNS): 2.7 µM |
| Cc1ccc(NC(=O)CCc2nnc3s/c(=C\C=C\c4ccccc4)c(=O)n23)cc1 | > 100 | > 100 | > 100 | > 100 | TGI (MDA-N): > 100 µM; TGI (PC-3 prostate): > 100 µM; TGI (T-47D breast): > 31.6 µM; TGI (BT-549 breast): > 100 µM; TGI (NCI/ADR-RES ovarian): > 78.6 µM |
| NC1=C(O)/C(=N/NS(=O)(=O)c2ccccc2)C(c2ccc3c(c2)OCO3)O1 (centres undefined) | > 100 | > 100 |  | > 100 |  |
| CCCCSC1CCSc2c1ccc1ccccc21 (centres undefined) | > 100 | > 100 |  | > 100 |  |
| Oc1cccc2cccnc12 |  |  |  |  | TGI (MDA-N): > 100 µM; TGI (T-47D breast): > 100 µM; TGI (BT-549 breast): > 100 µM; TGI (NCI/ADR-RES ovarian): 35.4 µM and > 100 µM and > 32 µM |
| COc1ccc(C2=NN(C(C)=O)c3nc4ccccc4nc3O2)cc1 | > 100 |  | > 100 |  |  |
| Cc1ccc(S(=O)(=O)NC(Cc2ccccc2)C(=O)CCl)cc1 (centres undefined) |  |  |  |  | TGI (MDA-N): 27.8 µM; TGI (PC-3 prostate): 29.5 µM; TGI (BT-549 breast): 23.9 µM; TGI (NCI/ADR-RES ovarian): 62.9 µM |
| O=C(NC1CCCCC1)NC12CC3CC(CC(F)(C3)C1)C2 | > 100 | > 100 | > 100 | > 100 |  |
| CC(=O)NNc1ncc(C(=O)/C=C/c2ccccc2C)s1 | > 100 | > 100 | > 100 | > 100 |  |
| Cc1ccc([N+](=O)[O-])cc1NC(=O)C(=O)Cc1nc2ccc(C(=O)c3ccccc3)cc2[nH]c1=O | > 100 | > 100 | > 100 |  |  |
| C=C1C2CC(OC(C)=O)C3(C)C(c4ccoc4)OC(=O)[C@@H](O)[C@]13OC1C[C@H](OC(C)=O)C(C)(C)[C@H](C(O)C(=O)OC)[C@]12C (some centres undefined) | > 100 | > 100 |  | > 100 |  |
| O=C(O)C(Cc1ccccc1)N=Cc1nc(-c2ccccc2)oc1O (centres undefined) |  | > 100 | > 100 | > 100 |  |
| CC(=O)N(N=O)c1ccc(N(N=O)C(C)=O)cc1 | > 100 | > 100 |  | > 100 |  |
| O=C(/C=C/c1ccc(-c2ccccc2)cc1)c1ccccc1 | 31.8 |  | 69 | > 100 |  |
| C/C(=N\NC(=O)c1ccccc1O)c1c(O)cc(C)oc1=O | > 100 | > 100 |  | > 100 |  |
| OCC1CC2C=CCC(C2)C1 (centres undefined) | > 100 | > 100 |  | > 100 |  |
| CCCCNC(=O)Oc1ccc(/C(=C(\C)c2ccc(OC)cc2)c2ccc(OCCN3CCCCC3)cc2)cc1 |  |  |  |  | GI50 (PC-3 prostate): 2.35 µM; TGI (PC-3 prostate): 7.03 µM; GI50 (T-47D breast): 1.24 µM; TGI (T-47D breast): 6.37 µM; GI50 (BT-549 breast): 1.48 µM; TGI (BT-549 breast): 2.89 µM; GI50 (NCI/ADR-RES ovarian): 3.67 µM; TGI (NCI/ADR-RES ovarian): 19.3 µM |
